The record followed here is US20020155164A1, “System and method for the prevention of infections in human patients using nitric oxide” (priority 2001, published 2002).

The experiment relates to bacteria. In words: Tests performed in vitro on bacteria. In kind it is cell-based. The note with it: many types of bacteria. An excerpt: The inventors of the instant invention have investigated NO for its use as a sterilizing agent in the prevention and treatment of infections. […] PCT International Application No. PCT/CA99/01123, a published Jun. 2, 2000, discloses a method and an apparatus for the treatment of human respiratory infections by NO inhalation.

SMILES strings stand for the structures.

Consider `[N]=O` [NO, nitric oxide], for which the “effect on growth / killing of bacteria” value is recorded as “interfere with the growth of and/or kill many types of bacteria”.
